Structures are written as SMILES.

The values below come from patent US9958434B2, “Fluorescent probe sensing tyrosine kinase and use thereof” (POSTECH ACADEMY-INDUSTRY FOUNDATION, priority 2013, dated 2018).

Assay [1] has as its system 96 kinase enzymes. The assay is described as follows: KINOMEscan competition binding (DiscoveRX). An excerpt: (§1) More particularly, to determine selectivities to various kinds of kinase enzymes, the samples were entrusted to DiscoveRX (U.S.A), which was able to determine the binding affinities to a total of 96 kinase enzymes, to perform KINOMEscan experiments. This company treated all kinds of information on the entrusted samples as confidential, and analyzed the sample with charge. Compound 1 was provided to the company, and the company performed the KINOMEscan experiments, and provided the results (DiscoveRX corp.)
(§2) KINOMEscan is an experiment in which compound 1 and a compound (a material strongly binding to kinase enzymes) competing for compound 1 are treated with a kinase enzyme at the same time to determine how many the competing compound binds to active sites of the kinase enzymes, compared with compound 1. In this experiment, an experimental value is expressed as a percentile value. In this case, a lower percentile value means that compound 1 more strongly bind to the kinase enzymes.

For assay [2], the target named is T1, ABL1 (T315I) (Homo sapiens, UniProt P00519, T315I).
T1 construct: purchased DiscoveRX (contract KINOMEscan service)
Briefly: KINOMEscan competition binding (DiscoveRX). The following applies: lower value means stronger binding.
Description: as §1, §2

For assay [3], the target named is T2, BRAF (Homo sapiens, UniProt P15056).
T2 construct: purchased DiscoveRX (contract KINOMEscan service)
Briefly: KINOMEscan competition binding (DiscoveRX). The following applies: lower value means stronger binding.
Description: as §1, §2

The target of assay [4] is T3, PDGFRa (Homo sapiens, UniProt P16234).
T3 construct: purchased Carna Biosciences
Briefly: KINOMEscan competition binding (DiscoveRX). The settings on record: lower value means stronger binding.
Description: as §1, §2

Assay [5] concerns the target T4, RSK2 (Homo sapiens, UniProt P51812).
T4 construct: purchased DiscoveRX (contract KINOMEscan service)
The assay is described as follows: KINOMEscan competition binding (DiscoveRX). The following applies: lower value means stronger binding.
Description: as §1, §2

For assay [6], the target named is T5, TYK2 (Homo sapiens, UniProt P29597).
T5 construct: purchased DiscoveRX (contract KINOMEscan service)
Briefly: KINOMEscan competition binding (DiscoveRX). The following applies: lower value means stronger binding.
Description: as §1, §2

Assay [7] has as its system B16F10, CT26, SNU-475, A431, SKBR3, HeLa, U87MG cancer cells. Briefly: Fluorescence turn-on in cancer cells, single-photon and two-photon fluorescence microscopy. The format is cell-based, mouse, human. The settings on record: 50 μM, one hour; single-photon ex 405 nm, two-photon ex 880 nm, em 500 to 550 nm. As to the method:
More particularly, a total of seven kinds of cancer cells, for example, (a) B16F10 mouse skin cancer cells, (b) CT26 mouse colon cancer cells, (c) SNU-475 human liver cancer cells, (d) A431 human epidermoid carcinoma cells, (e) SKBR3 human breast cancer cells, (f) HeLa human uterine cancer cells, and (g) U87MG human brain tumor cells, were treated with compound 1, and fluorescence images of the cancer cells were observed under a single-photon (confocal) fluorescence microscope (FV1000 model, Olympus) and a two-photon fluorescence microscope (Chameleon Ultra, Coherent, home-built version). Each of the cancer cells were incubated in a minimum essential medium with Earle's balanced salts (MEM/EBSS), a Dulbecco's modified Eagle medium (DMEM), a Roswell Park Memorial Institute (RPMI) medium, a fetal bovine serum (FBS), a penicillin-streptomycin (PS) medium, phosphate buffered saline (PBS), and a trypsin-EDTA culture broth, all of which were commercially available from Hyclone. In this case, the incubation was performed at 37° C. […] When the preparation was completed, a fluorescence image was obtained using a fluorescence microscope.
In FIG. 11, the top panel represents a bright field image, the middle panel represents a single-photon fluorescence microscope image of the cells, and the bottom panel represents a two-photon fluorescence microscope image of the cells.

For assay [8], the system named is mouse melanoma skin cancer B16F10 tissues. Briefly: In vivo two-photon microscopy and OCT imaging of mouse ear transplanted with skin cancer tissues. As to the method: More particularly, a mouse's ear was transplanted with skin cancer tissues (mouse melanoma skin cancer B16F10), and treated with compound 1 to determine that fluorescence was selectively observed in a site of cancer in living mice under a two-photon microscope. 6-month-old, SPF/VAF immunodeficent female nude mice (BALB/c-nude mice, OrientBio corp.) were used as the mice, and the B16F10 cancer cells were prepared in the same manner as in Example 12. Then, the concentrated cancer cells from which a solution was removed using a centrifuge were injected into one ear of each mouse using a syringe. After 4 day, formation of cancer tissues in the mouse's ear was checked, and 10 μL of compound 1 (10 mM) was injected into the one ear of each mouse. […] After 30 minutes, the mice were anesthetized by […], and images were taken of cancer tissues and normal tissues using a two-photon fluorescence microscope. […]
In FIG. 13, each image has a size of 300 μm×300 μm, and a scale bar represents 50 μm. A right bar represents a fluorescence signal intensity. […] The panels a and d show the two-photon fluorescence imaging results from the mice into which nothing is injected, the panels b and e show the two-photon fluorescence imaging results from the mice into which 10 μL of a PBS buffer including no compound 1 is injected, and the panels c and f show the […]

T4 sequence (P51812 whole entry): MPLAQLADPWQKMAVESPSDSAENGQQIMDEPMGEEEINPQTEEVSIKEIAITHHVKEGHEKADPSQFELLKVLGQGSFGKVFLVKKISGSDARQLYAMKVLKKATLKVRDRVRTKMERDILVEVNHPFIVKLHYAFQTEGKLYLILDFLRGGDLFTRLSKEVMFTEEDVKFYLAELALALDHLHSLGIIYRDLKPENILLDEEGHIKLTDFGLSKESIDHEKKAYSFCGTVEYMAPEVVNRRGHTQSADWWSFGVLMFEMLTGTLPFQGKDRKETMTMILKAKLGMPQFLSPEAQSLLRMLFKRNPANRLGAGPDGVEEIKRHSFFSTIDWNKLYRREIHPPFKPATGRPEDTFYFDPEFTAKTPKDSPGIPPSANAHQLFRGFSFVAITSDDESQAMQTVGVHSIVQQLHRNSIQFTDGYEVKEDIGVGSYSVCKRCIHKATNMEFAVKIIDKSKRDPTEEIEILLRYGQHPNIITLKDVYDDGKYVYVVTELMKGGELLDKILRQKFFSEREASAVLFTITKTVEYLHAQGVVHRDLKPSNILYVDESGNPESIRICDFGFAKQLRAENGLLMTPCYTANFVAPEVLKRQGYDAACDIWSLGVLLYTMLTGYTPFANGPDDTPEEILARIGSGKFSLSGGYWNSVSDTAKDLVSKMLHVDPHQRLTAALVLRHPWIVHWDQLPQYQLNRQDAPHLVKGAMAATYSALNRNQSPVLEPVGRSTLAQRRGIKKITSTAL
T5 sequence (P29597 whole entry): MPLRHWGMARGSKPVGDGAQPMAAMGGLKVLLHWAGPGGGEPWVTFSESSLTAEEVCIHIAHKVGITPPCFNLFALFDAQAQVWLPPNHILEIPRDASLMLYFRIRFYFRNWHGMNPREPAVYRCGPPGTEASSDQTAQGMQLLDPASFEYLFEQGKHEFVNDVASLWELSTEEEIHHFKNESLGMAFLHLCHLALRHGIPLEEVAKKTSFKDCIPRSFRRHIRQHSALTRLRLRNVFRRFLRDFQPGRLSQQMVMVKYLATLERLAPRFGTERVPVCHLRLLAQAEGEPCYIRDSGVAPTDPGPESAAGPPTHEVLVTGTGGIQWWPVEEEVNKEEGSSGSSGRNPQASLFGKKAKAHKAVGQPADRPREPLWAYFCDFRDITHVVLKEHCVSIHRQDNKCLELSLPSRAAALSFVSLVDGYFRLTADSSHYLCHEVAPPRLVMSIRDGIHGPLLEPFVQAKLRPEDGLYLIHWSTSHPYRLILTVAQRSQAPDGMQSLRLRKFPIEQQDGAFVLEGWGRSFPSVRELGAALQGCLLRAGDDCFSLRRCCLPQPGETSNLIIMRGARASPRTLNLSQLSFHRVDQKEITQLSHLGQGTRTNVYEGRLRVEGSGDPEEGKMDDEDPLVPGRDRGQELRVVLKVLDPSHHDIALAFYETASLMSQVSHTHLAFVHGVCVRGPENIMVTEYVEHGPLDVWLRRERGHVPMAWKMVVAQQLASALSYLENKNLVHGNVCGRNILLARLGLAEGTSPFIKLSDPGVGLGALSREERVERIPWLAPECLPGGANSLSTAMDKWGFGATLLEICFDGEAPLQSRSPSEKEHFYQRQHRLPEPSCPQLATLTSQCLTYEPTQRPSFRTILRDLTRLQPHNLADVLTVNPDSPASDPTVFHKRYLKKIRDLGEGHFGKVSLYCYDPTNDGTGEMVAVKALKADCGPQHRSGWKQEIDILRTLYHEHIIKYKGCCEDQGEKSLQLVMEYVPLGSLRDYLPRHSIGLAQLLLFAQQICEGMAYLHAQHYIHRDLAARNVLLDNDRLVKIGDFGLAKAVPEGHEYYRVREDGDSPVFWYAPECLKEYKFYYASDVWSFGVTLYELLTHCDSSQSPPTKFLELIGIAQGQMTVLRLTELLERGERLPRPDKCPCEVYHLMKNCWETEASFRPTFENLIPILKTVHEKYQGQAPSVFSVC
T2 sequence (P15056 whole entry): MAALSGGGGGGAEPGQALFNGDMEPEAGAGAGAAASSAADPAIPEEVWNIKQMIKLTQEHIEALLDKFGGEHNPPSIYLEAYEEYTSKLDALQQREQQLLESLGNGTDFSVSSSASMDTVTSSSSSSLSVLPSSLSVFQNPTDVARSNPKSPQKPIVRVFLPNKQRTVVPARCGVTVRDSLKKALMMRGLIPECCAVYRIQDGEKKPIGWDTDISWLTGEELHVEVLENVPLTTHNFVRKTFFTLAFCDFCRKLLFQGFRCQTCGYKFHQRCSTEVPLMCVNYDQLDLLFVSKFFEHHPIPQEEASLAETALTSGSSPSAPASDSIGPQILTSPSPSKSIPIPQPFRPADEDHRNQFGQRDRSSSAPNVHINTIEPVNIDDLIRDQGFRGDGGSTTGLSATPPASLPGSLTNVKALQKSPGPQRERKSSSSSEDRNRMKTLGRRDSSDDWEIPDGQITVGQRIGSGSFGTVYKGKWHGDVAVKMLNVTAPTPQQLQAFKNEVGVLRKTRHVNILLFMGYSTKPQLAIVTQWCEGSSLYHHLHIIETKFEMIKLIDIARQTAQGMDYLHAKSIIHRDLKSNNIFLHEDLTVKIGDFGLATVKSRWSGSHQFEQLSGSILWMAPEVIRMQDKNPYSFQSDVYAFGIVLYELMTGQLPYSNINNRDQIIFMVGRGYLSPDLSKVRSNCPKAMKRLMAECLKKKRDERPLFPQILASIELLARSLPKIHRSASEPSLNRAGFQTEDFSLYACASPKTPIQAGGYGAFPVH
T3 sequence (P16234 24-1089): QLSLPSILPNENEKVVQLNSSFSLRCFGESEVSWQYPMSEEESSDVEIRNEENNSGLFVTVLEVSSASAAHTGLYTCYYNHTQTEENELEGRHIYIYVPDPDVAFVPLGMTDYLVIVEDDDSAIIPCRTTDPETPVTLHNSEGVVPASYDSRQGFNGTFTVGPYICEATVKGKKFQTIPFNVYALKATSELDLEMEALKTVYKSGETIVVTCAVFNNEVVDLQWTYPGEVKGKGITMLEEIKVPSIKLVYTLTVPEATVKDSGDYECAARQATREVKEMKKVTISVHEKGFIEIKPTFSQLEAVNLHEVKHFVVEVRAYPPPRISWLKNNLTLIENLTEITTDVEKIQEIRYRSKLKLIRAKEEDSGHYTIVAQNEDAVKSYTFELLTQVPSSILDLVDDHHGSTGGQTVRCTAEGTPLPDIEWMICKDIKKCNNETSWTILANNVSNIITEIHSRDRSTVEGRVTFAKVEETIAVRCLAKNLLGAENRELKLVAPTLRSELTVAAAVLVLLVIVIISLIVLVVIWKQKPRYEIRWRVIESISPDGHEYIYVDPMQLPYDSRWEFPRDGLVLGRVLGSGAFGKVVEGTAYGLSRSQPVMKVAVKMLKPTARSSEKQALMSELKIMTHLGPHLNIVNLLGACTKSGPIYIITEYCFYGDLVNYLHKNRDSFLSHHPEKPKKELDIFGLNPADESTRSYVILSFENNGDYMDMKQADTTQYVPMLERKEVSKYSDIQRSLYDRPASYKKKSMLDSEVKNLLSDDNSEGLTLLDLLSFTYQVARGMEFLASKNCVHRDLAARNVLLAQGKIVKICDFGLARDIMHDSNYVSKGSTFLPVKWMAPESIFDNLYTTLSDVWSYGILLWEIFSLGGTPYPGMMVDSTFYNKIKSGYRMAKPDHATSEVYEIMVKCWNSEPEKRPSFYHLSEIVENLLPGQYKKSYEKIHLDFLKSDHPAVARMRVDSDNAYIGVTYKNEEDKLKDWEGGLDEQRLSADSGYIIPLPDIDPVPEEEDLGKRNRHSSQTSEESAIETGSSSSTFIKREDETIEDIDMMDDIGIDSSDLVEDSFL

Regarding `CN(C)c1ccc2cc(C=O)c(O)cc2c1` [compound 1, 6-(dimethylamino)-3-hydroxyl-2-naphthaldehyde], the “number of kinase enzymes bound, of a total of 96” value in assay [1] was “at least 50”. The KINOMEscan percentile value entry in assay [2], in assay [3], in assay [4], in assay [5] and in assay [6] was “low percentile value” each time. In addition, in assay [7], the “fluorescence image in cancer cells” value is “bright fluorescence image”. In assay [8] (nude mice, ear injection of 10 μL of compound 1 (10 mM), imaged after 30 minutes, ex 880 nm), the “two-photon fluorescence in cancer tissues versus normal tissues” value is given as “strong fluorescence was selectively observed in the cancer tissues”. The “3D imaging (two-photon microscopy combined with OCT) fluorescence” value in assay [8] (same conditions as Example 14, cancer tissues) was “fluorescence was strongly emitted from the wide tissues”.
